SMILES strings stand for the structures.

In one series the test system is autologous LCL targets. Nature of the series: Flow cytometry-based cytotoxicity assay (CFSE/7-AAD), effectors against autologous LCL. The class given is cell-based, human. The procedure:
Non-radioactive flow cytometry-based cytotoxicity assays have been described previously (Godoy-Ramirez 2005; Helguera 2011). Co-cultures of PBMC and irradiated LCL were grown in the presence or absence of silvestrol for 14 d and collected. Fresh autologous LCL cells were stained with 200 nM carboxyfluorescein diacetate succinimidyl ester (CFSE) (CellTrace™, Invitrogen) for 15 min at 25° C. prior to being mixed with effectors from the irradiated co-cultures at an effector:target (E:T) ratio of 20:1 for 4 hr at 37° C. After the incubation, cells were stained with 7-aminoactinomycin D (7AAD) (BD Biosciences, San Diego, Calif.) and washed. Cytotoxicity was measured by gating on the CFSE-positive events and measuring the 7AAD-positive cells. (See FIGS. 31 and 32). For antibody-dependent cell-mediated cytotoxicity (ADCC) assays the same technique was used; however, the co-cultured effectors were natural killer (NK) cell-enriched and were incubated in the presence or absence of 5 μg/mL rituximab or herceptin (negative control) (Genentech, Inc., South San Francisco, Calif.) for 4 hr at 37° C.
Immune cell function was then analyzed as part of the indirect anti-tumor activity of silvestrol. Cytotoxicity assays were performed. To investigate the effect of silvestrol on adaptive immunity, LCL cells were stained with the cell-tracking dye CFSE, then incubated at an effector to target ratio of 20:1 with autologous PBMC that had been cultured in the presence of irradiated LCL, with or without silvestrol, for 14 days. After a 4 hr incubation, cells were stained with the viability dye 7-AAD and washed. Cytotoxic activity against LCL targets was measured by gating on the CFSE positive events and measuring the 7-AAD positive cells (FIGS. 31-32). […] Data are shown relative to the vehicle-only control and are the averages of three independent experiments. Bars show −/+ standard deviation.
Given that LCL cells were depleted and effector cell cytotoxicity was maintained in non-irradiated co-cultures, whether silvestrol lowers the apoptotic threshold of the LCL tumor target was examined. PBMC were co-cultured with irradiated LCL in the absence of silvestrol for 14 days. These expanded effectors and fresh LCL each were separately incubated with silvestrol or vehicle control for 18 hr and washed. Cells were then combined, and after 4 hr incubation, cytotoxicity assays were performed as above. […] Data are shown relative to the vehicle-only control and are the averages of three independent experiments. Bars show −/+ standard deviation.

The test system of the next series is LMP-1. The experiment in a line: Immunoblot of LMP-1 in LCL. The class given is cell-based, Epstein-Barr virus. The procedure: (§1) Cells were harvested and lysed as described (Alinari 2011). Following collection of whole cell lysates, equal amounts of protein were resolved by SDS-PAGE and transferred onto a PVDF membrane (Millipore, Billerica, Mass.). Membrane was probed overnight at 4° C. with β-actin, pSTAT1, pSTAT3, STAT1, STAT3, pAkt, Akt (Cell Signaling Technology, Danvers, Mass.), or LMP-1 (DakoCytomation, Carpinteria, Calif.). After incubation with HRP-conjugated secondary antibody (Cell Signaling Technology), protein was detected with SuperSignal West Pico Chemiluminescent Substrate (Pierce, Rockford, Ill.).
(§2) Whole cell protein levels of LMP-1 was evaluated by immunoblot 72 hr after treating with a single dose (10 nM) of silvestrol in seven LCL lines (FIG. 3A). β-actin was included as a loading control. In FIG. 3B, LCL were incubated 24, 72, and 120 hr in the presence of 10 nM silvestrol or vehicle control. Whole cell lysates were immunoblotted for LMP-1. Results are representative of 3 LCL lines. […] Decreases in other latent gene products involved with EBV-driven B cell transformation were observed as well. In FIG. 3D, LCL were incubated as in FIG. 3B and immunoblotted for STAT1, STAT3, AKT and NF-κB p65.
(In general: In western blotting, separated proteins are transferred to a membrane and probed.)

Series [1] deals with EBV LMP-1 oncogene transcript. Nature of the series: EBV LMP-1 oncogene transcript expression in LCL. Format: cell-based, Epstein-Barr virus. The settings on record: three cell lines; days 1, 3, 5 (FIG. 46). The source says: FIG. 41 presents data regarding NK cytotoxicity of K562 cells. […] FIG. 42 presents data regarding the cytotoxicity of LCLs pretreated with BZLF 1. […] BZLF1 antigen pulsed LCLs promoted enhanced killing in untreated and silvestrol-treated CTLs. FIG. 43 presents data relating to CD4 IFNgamma release with LCL pretreated with BZLF1. […] FIG. 44 presents data relating to CD4 IFNgamma release with LCL pretreated with BZLF 1. […] FIG. 45 presents data relating to interleukin-6 induction by silvestrol. […] FIG. 46 presents data relating to a change in LMP-1 expression following silvestrol treatment. […] Three cell lines were examined on days 1, 3, and 5 following treatment. FIG. 47 presents data relating to a change in EBNA1 expression following silvestrol treatment. Three cell lines were examined on days 1, 3, and 5 following treatment.

The test system of a further series is EBNA2, EBNA3C, BZLF1. Nature of the series: Immunoblot of other EBV proteins in LCL. Format: cell-based, Epstein-Barr virus. The settings on record: FIG. 3C. On the procedure:
as §1, §2

Turning to `COC(=O)[C@H]1[C@@H](O)[C@@]2(O)c3c(OC)cc(O[C@@H]4O[C@@H]([C@H](O)CO)CO[C@H]4OC)cc3O[C@@]2(c2ccc(OC)cc2)[C@@H]1c1ccccc1` [silvestrol], in the series on autologous LCL targets (10 nM (FIG. 42)), the “direct killing of autologous EBV+ LCLs by EBV-specific CTLs” value is reported as “not adversely affected”. The “cytotoxic activity against autologous LCL maintained, compared to effectors expanded without silvestrol” value with autologous LCL targets (effectors expanded 14 days with 10 nM, E:T 20:1, 4 hr) was “over 70%”. Further, the “ability of silvestrol-treated effectors to kill targets vs. untreated effectors” value in the series with autologous LCL targets (effectors incubated 18 hr with silvestrol, p=0.287) was “no decrease”. The “cytotoxic activity of effector populations against autologous EBV+ tumor cells” value in the series on autologous LCL targets (expanded 14 days in 2, 5, 10 nM, 3 donors (FIG. 17)) is given as “did not affect cytotoxic activity”. In addition, the “killing of LCL target cells pretreated with silvestrol vs. untreated targets” value with autologous LCL targets (targets pretreated 18 hr, p<0.0001) was “more efficiently killed”. In the series with LMP-1 (10 nM, 5 days, cells from seven donors (FIG. 3A)), the LMP1 protein levels result was “reduced LMP1 protein levels”. Further, in the series on LMP-1 (single 10 nM dose, 24, 72, 120 hr (FIG. 3B)), the “LMP-1 levels over time” value is on record as “fall incrementally as a function of time”. Further, the “expression of the EBV LMP-1 oncogene transcript” value in series [1] is given as “decreased”. Further, in the series on EBNA2, EBNA3C, BZLF1, the “EBNA2 and EBNA3C proteins” value is “affected”; the “expression of BZLF1” value is “did not affect”.

(Values after US20140255432A1, “SILVESTROL, SILVESTROL ANALOGS AND USES THEREOF” (priority 2011, published 2014).)
